Assay results taken from ChEMBL document CHEMBL4028904, “Discovery of a Novel Series of Tankyrase Inhibitors by a Hybridization Approach” (J Med Chem, 2017).

How the values were obtained:
[1] = target: T1, Poly [ADP-ribose] polymerase tankyrase-2 (Homo sapiens, UniProt Q9H2K2); assay: Inhibition of TNKS2 (unknown origin) expressed in HEK293 cells assessed as inhibition of Wnt3a-induced Wnt/beta-catenin signaling after 24 hrs by luciferase reporter gene assay; assay type: cell-based
T1 sequence (Q9H2K2 whole entry): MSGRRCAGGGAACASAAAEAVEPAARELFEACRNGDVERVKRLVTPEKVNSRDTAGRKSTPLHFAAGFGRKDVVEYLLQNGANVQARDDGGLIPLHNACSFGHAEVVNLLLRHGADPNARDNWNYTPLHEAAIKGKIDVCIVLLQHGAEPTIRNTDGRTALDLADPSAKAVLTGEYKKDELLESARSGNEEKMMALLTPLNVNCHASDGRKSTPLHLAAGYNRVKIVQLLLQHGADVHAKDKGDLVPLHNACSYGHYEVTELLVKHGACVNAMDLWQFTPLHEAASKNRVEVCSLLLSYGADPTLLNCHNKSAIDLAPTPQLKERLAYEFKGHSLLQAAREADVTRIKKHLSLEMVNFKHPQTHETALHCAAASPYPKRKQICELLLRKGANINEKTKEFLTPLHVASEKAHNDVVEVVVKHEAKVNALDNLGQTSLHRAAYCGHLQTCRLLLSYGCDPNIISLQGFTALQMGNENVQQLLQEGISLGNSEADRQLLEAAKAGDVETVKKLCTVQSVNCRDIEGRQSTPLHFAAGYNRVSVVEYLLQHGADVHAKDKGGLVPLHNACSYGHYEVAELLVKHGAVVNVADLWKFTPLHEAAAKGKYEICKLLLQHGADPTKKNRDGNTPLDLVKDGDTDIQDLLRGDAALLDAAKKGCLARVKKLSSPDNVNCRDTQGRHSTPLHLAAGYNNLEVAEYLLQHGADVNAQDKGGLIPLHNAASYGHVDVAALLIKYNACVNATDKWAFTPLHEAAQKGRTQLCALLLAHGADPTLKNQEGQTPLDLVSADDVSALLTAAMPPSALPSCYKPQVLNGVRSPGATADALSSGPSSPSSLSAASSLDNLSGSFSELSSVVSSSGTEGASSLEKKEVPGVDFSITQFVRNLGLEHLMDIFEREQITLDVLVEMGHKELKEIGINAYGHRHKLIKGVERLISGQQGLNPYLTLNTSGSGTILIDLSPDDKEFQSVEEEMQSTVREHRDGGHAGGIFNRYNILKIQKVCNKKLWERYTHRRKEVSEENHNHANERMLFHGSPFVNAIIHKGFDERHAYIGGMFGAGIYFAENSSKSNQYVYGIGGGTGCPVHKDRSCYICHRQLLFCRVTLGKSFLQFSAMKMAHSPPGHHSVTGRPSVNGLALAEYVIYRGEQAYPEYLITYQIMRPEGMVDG

[2] = target: T1, Poly [ADP-ribose] polymerase tankyrase-2; assay: Inhibition of TNKS2 (unknown origin) transfected in human SW480 cells assessed as inhibition of Wnt3a-induced Wnt/beta-catenin signaling after 48 hrs by ST-luciferase reporter gene assay; assay type: cell-based
[3] = target: T1, Poly [ADP-ribose] polymerase tankyrase-2; assay: Inhibition of human TNKS2 (873 to 1162 residues) assessed as reduction in NAD+ consumption by fluorescence assay

Structure (SMILES) | IC50 [1] | IC50 [2] | IC50 [3]
O=c1[nH]c2ccccc2n1[C@H]1C[C@H](c2nnc(-c3ccncn3)n2-c2ccccc2Cl)C1 | 200 nM | 410 nM | 9.8 nM
N#Cc1ccc2c(c1)[nH]c(=O)n2[C@H]1CC[C@H](c2nnc(-c3ccncn3)n2-c2ccccc2Cl)CC1 | 120 nM | 1490 nM | 330 nM
